Measurements published in patent publication US20210045385A1, “PYRIDAZINONE-SUBSTITUTED KETOXIMES AS HERBICIDES” (FMC Corporation, priority 2018, published 2021).

What was measured:
Assay type in all cases: in vivo
[1] = system: Italian ryegrass (Lolium multiflorum); experiment: Test A preemergence, visual plant response rating; conditions: for Ryegrass, Italian plant response rating: 125 g ai/ha, preemergence, 0 to 100 scale, 0 no effect, 100 complete control; for Ryegrass, Italian plant response rating (0 to 100 scale): 500 g ai/ha Preemergence, approx. 10 days
Summary of the method: (§1)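 Compared with untreated controls, treated plants received a visual injury score on a 0–100 scale around 10 days after application. The compound, in a non-phytotoxic solvent with surfactant, was given as a preemergence soil spray or postemergence at the one- to two-leaf stage.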

[2] = system: barnyardgrass (Echinochloa crus-galli); experiment: Test A preemergence, visual plant response rating; conditions: for Barnyardgrass plant response rating: 125 g ai/ha, preemergence, 0 to 100 scale, 0 no effect, 100 complete control; for Barnyardgrass plant response rating (0 to 100 scale): 500 g ai/ha Preemergence, approx. 10 days
Summary of the method: as §1

[3] = system: foxtail, giant (giant foxtail, Setaria faberii); experiment: Test A preemergence, visual plant response rating; conditions: for Foxtail, Giant plant response rating: 125 g ai/ha, preemergence, 0 to 100 scale, 0 no effect, 100 complete control; for Foxtail, Giant plant response rating (0 to 100 scale): 500 g ai/ha Preemergence, approx. 10 days
Summary of the method: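 Preemergence: seeds in loam/sand blend given directed soil spray of compound in non-phytotoxic solvent with surfactant. Postemergence: plants 2–10 cm, one- to two-leaf stage, sprayed with same formulation. Visual injury rated vs untreated controls after ~10 days in greenhouse, 0 (no effect) to 100 (complete control).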

kochia (Kochia scoparia) [4] = experiment: Test A preemergence, visual plant response rating; conditions: for Kochia plant response rating: 125 g ai/ha, preemergence, 0 to 100 scale, 0 no effect, 100 complete control; for Kochia plant response rating (0 to 100 scale): 500 g ai/ha Preemergence, approx. 10 days
Summary of the method: as §1

[5] = system: pigweed (Amaranthus retroflexus); experiment: Test A preemergence, visual plant response rating; conditions: for Pigweed plant response rating: 125 g ai/ha, preemergence, 0 to 100 scale, 0 no effect, 100 complete control; for Pigweed plant response rating (0 to 100 scale): 500 g ai/ha Preemergence, approx. 10 days
Summary of the method: as §1

[6] = system: ragweed (common ragweed, Ambrosia elatior); experiment: Test A preemergence, visual plant response rating; conditions: for Ragweed plant response rating: 125 g ai/ha, preemergence, 0 to 100 scale, 0 no effect, 100 complete control; for Ragweed plant response rating (0 to 100 scale): 500 g ai/ha Preemergence, approx. 10 days
Summary of the method: as §1

[7] = system: Italian ryegrass (Lolium multiflorum); experiment: Test A postemergence, visual plant response rating; conditions: for Ryegrass, Italian plant response rating (0 to 100 scale): 500 g ai/ha, postemergence, 0 is no effect, 100 is complete control; for Ryegrass, Italian plant response rating: Postemergence, 125 g ai/ha, 0 to 100 scale (0 no effect, 100 complete control)
Summary of the method: as §1

[8] = system: barnyardgrass (Echinochloa crus-galli); experiment: Test A postemergence, visual plant response rating; conditions: for Barnyardgrass plant response rating (0 to 100 scale): 500 g ai/ha, postemergence, 0 is no effect, 100 is complete control; for Barnyardgrass plant response rating: Postemergence, 125 g ai/ha, 0 to 100 scale (0 no effect, 100 complete control)
Summary of the method: as §1

[9] = system: blackgrass (Alopecurus myosuroides); experiment: Test A postemergence, visual plant response rating; conditions: for Blackgrass plant response rating (0 to 100 scale): 500 g ai/ha, postemergence, 0 is no effect, 100 is complete control; for Blackgrass plant response rating: Postemergence, 125 g ai/ha, 0 to 100 scale (0 no effect, 100 complete control)
Summary of the method: as §1

corn (Zea mays) = experiment: Test A postemergence, visual plant response rating; conditions: for Corn plant response rating (0 to 100 scale): 500 g ai/ha, postemergence, 0 is no effect, 100 is complete control; for Corn plant response rating: Postemergence, 125 g ai/ha, 0 to 100 scale (0 no effect, 100 complete control)
Summary of the method: as §1

[10] = system: foxtail, giant (giant foxtail, Setaria faberii); experiment: Test A postemergence, visual plant response rating; conditions: for Foxtail, Giant plant response rating (0 to 100 scale): 500 g ai/ha, postemergence, 0 is no effect, 100 is complete control; for Foxtail, Giant plant response rating: Postemergence, 125 g ai/ha, 0 to 100 scale (0 no effect, 100 complete control)
Summary of the method: as §1

[11] = system: galium (catchweed bedstraw, Galium aparine); experiment: Test A postemergence, visual plant response rating; conditions: for Galium plant response rating (0 to 100 scale): 500 g ai/ha, postemergence, 0 is no effect, 100 is complete control; for Galium plant response rating: Postemergence, 125 g ai/ha, 0 to 100 scale (0 no effect, 100 complete control)
Summary of the method: as §1

kochia (Kochia scoparia) [12] = experiment: Test A postemergence, visual plant response rating; conditions: for Kochia plant response rating (0 to 100 scale): 500 g ai/ha, postemergence, 0 is no effect, 100 is complete control; for Kochia plant response rating: Postemergence, 125 g ai/ha, 0 to 100 scale (0 no effect, 100 complete control)
Summary of the method: as §1

[13] = system: pigweed (Amaranthus retroflexus); experiment: Test A postemergence, visual plant response rating; conditions: for Pigweed plant response rating (0 to 100 scale): 500 g ai/ha, postemergence, 0 is no effect, 100 is complete control; for Pigweed plant response rating: Postemergence, 125 g ai/ha, 0 to 100 scale (0 no effect, 100 complete control)
Summary of the method: as §1

[14] = system: ragweed (common ragweed, Ambrosia elatior); experiment: Test A postemergence, visual plant response rating; conditions: for Ragweed plant response rating (0 to 100 scale): 500 g ai/ha, postemergence, 0 is no effect, 100 is complete control; for Ragweed plant response rating: Postemergence, 125 g ai/ha, 0 to 100 scale (0 no effect, 100 complete control)
Summary of the method: as §1

[15] = system: wheat (Triticum aestivum); experiment: Test A postemergence, visual plant response rating; conditions: for Wheat plant response rating (0 to 100 scale): 500 g ai/ha, postemergence, 0 is no effect, 100 is complete control; for Wheat plant response rating: Postemergence, 125 g ai/ha, 0 to 100 scale (0 no effect, 100 complete control)
Summary of the method: as §1

[16] = system: barnyardgrass (Echinochloa crus-galli); experiment: Test B flooded paddy test, visual plant response rating; conditions: 250 g ai/ha, Flood, applied to paddy water, 2-leaf stage, evaluated after 13 to 15 days
Summary of the method: (§2)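 Rice, umbrella sedge, ducksalad and barnyardgrass grown to 2-leaf stage; pots flooded 3 cm above soil and compound applied directly to paddy water, depth maintained.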

[17] = system: ducksalad (Heteranhera limosa); experiment: as above; conditions: 250 g ai/ha, Flood, applied to paddy water, 2-leaf stage, evaluated after 13 to 15 days
Summary of the method: as §2

rice (Oryza sativa) = experiment: as above; conditions: 250 g ai/ha, Flood, applied to paddy water, 2-leaf stage, evaluated after 13 to 15 days
Summary of the method: as §2

[18] = system: sedge, umbrella (small-flower umbrella sedge, Cyperus difformis); experiment: as above; conditions: 250 g ai/ha, Flood, applied to paddy water, 2-leaf stage, evaluated after 13 to 15 days
Summary of the method: as §2

Row | Structure (SMILES) | Ryegrass, Italian plant response rating [1] | Ryegrass, Italian plant response rating (0 to 100 scale) [1] | Barnyardgrass plant response rating [2] | Barnyardgrass plant response rating (0 to 100 scale) [2] | Foxtail, Giant plant response rating [3] | Foxtail, Giant plant response rating (0 to 100 scale) [3] | Kochia plant response rating (kochia (Kochia scoparia) [4]) | Kochia plant response rating (0 to 100 scale) (kochia (Kochia scoparia) [4]) | Pigweed plant response rating [5] | Pigweed plant response rating (0 to 100 scale) [5] | Ragweed plant response rating [6] | Ragweed plant response rating (0 to 100 scale) [6] | Ryegrass, Italian plant response rating (0 to 100 scale) [7] | Ryegrass, Italian plant response rating [7] | Barnyardgrass plant response rating (0 to 100 scale) [8] | Barnyardgrass plant response rating [8] | Blackgrass plant response rating (0 to 100 scale) [9] | Blackgrass plant response rating [9] | Corn plant response rating (0 to 100 scale) (corn (Zea mays)) | Corn plant response rating (corn (Zea mays)) | other results
1 | CO/N=C(/c1cc(Cl)ccc1C(F)(F)F)c1c(O)c(C)nn(C)c1=O [Compound 95] | 90 | 100 | 60 | 60 | 80 | 100 | 10 | 70 | 50 | 100 | 30 | 100 | 100 | 80 | 60 | 50 | 100 | 60 | 40 | 0 | Foxtail, Giant plant response rating (0 to 100 scale) [10]: 80; Foxtail, Giant plant response rating [10]: 60; Galium plant response rating (0 to 100 scale) [11]: 90; Galium plant response rating [11]: 80; Kochia plant response rating (0 to 100 scale) (kochia (Kochia scoparia) [12]): 80; Kochia plant response rating (kochia (Kochia scoparia) [12]): 60; Pigweed plant response rating (0 to 100 scale) [13]: 80; Pigweed plant response rating [13]: 70; Ragweed plant response rating (0 to 100 scale) [14]: 90; Ragweed plant response rating [14]: 80; Wheat plant response rating (0 to 100 scale) [15]: 70; Wheat plant response rating [15]: 40; Plant response rating, Barnyardgrass (0 to 100 scale, 0 is no effect, 100 is complete control) [16]: 0; Plant response rating, Ducksalad (0 to 100 scale, 0 is no effect, 100 is complete control) [17]: 0; Plant response rating, Rice (0 to 100 scale, 0 is no effect, 100 is complete control) (rice (Oryza sativa)): 0; Plant response rating, Sedge, Umbrella (0 to 100 scale, 0 is no effect, 100 is complete control) [18]: 0
2 | CON=C(c1c(O)c(C)nn(C)c1=O)c1cccc2cc(Br)ccc12 [Compound 96] | 30 | 100 | 60 | 80 | 70 | 100 | 20 | 100 | 80 | 100 | 90 | 100 | 80 | 80 | 30 | 20 | 100 | 90 | 30 | 10 | Foxtail, Giant plant response rating (0 to 100 scale) [10]: 70; Foxtail, Giant plant response rating [10]: 20; Galium plant response rating (0 to 100 scale) [11]: 90; Galium plant response rating [11]: 90; Kochia plant response rating (0 to 100 scale) (kochia (Kochia scoparia) [12]): 80; Kochia plant response rating (kochia (Kochia scoparia) [12]): 60; Pigweed plant response rating (0 to 100 scale) [13]: 90; Pigweed plant response rating [13]: 80; Ragweed plant response rating (0 to 100 scale) [14]: 100; Ragweed plant response rating [14]: 90; Wheat plant response rating (0 to 100 scale) [15]: 50; Wheat plant response rating [15]: 0; Plant response rating, Barnyardgrass (0 to 100 scale, 0 is no effect, 100 is complete control) [16]: 0; Plant response rating, Ducksalad (0 to 100 scale, 0 is no effect, 100 is complete control) [17]: 0; Plant response rating, Rice (0 to 100 scale, 0 is no effect, 100 is complete control) (rice (Oryza sativa)): 0; Plant response rating, Sedge, Umbrella (0 to 100 scale, 0 is no effect, 100 is complete control) [18]: 0
